Measurements reported in ChEMBL document CHEMBL1821583 (Bioorg Med Chem Lett, 2011).

Key:
[1] = Inhibition of hedgehog signaling pathway in mouse Shh Light2 cells by Gli-dependent reporter gene assay; assay type: functional, cell-based; settings: Shh Light II
[2] = Lipophilicity, log D of the compound; assay type: physicochemical; settings: octanol/water
[3] = Intrinsic clearance in human liver microsomes assessed per mg of protein; assay type: ADME, Microsome
Protein smoothened [4] = molecular target: T1, Protein smoothened (Homo sapiens, UniProt Q99835); assay: Displacement of BODIPY-cyclopamine from Smo expressed in COS-1 cells after 4 to 6 hrs by Flow Cytometry analysis in presence of 20% normal human serum; assay type: cell-based
T1 sequence (Q99835 whole entry): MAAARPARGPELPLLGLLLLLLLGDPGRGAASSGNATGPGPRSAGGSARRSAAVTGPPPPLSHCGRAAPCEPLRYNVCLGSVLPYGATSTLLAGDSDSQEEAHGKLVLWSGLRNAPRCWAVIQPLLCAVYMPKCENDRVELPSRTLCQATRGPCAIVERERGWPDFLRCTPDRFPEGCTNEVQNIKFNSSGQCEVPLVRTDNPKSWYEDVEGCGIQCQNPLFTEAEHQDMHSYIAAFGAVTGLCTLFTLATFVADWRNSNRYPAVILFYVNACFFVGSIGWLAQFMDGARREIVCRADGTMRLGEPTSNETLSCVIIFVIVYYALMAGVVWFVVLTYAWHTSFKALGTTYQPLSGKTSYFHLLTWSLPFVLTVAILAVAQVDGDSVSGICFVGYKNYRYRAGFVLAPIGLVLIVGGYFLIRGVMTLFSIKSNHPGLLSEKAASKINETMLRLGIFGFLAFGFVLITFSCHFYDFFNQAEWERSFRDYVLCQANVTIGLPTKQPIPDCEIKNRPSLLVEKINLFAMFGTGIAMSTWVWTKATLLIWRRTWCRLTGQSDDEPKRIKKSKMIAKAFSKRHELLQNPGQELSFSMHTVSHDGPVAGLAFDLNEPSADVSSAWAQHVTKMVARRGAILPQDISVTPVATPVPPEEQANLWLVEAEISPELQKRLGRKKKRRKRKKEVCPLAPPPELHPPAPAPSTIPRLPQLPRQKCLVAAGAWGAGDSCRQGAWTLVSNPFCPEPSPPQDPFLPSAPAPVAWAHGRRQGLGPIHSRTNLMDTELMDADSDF

Protein smoothened [5] = molecular target: T1, Protein smoothened; assay: Displacement of BODIPY-cyclopamine from Smo expressed in COS-1 cells after 4 to 6 hrs by Flow Cytometry analysis in presence of 2% fetal calf serum; assay type: cell-based
[6] = molecular target: Voltage-gated inwardly rectifying potassium channel KCNH2 (Homo sapiens, UniProt Q12809)
Voltage-gated inwardly rectifying potassium channel KCNH2, sequence (Q12809 whole entry): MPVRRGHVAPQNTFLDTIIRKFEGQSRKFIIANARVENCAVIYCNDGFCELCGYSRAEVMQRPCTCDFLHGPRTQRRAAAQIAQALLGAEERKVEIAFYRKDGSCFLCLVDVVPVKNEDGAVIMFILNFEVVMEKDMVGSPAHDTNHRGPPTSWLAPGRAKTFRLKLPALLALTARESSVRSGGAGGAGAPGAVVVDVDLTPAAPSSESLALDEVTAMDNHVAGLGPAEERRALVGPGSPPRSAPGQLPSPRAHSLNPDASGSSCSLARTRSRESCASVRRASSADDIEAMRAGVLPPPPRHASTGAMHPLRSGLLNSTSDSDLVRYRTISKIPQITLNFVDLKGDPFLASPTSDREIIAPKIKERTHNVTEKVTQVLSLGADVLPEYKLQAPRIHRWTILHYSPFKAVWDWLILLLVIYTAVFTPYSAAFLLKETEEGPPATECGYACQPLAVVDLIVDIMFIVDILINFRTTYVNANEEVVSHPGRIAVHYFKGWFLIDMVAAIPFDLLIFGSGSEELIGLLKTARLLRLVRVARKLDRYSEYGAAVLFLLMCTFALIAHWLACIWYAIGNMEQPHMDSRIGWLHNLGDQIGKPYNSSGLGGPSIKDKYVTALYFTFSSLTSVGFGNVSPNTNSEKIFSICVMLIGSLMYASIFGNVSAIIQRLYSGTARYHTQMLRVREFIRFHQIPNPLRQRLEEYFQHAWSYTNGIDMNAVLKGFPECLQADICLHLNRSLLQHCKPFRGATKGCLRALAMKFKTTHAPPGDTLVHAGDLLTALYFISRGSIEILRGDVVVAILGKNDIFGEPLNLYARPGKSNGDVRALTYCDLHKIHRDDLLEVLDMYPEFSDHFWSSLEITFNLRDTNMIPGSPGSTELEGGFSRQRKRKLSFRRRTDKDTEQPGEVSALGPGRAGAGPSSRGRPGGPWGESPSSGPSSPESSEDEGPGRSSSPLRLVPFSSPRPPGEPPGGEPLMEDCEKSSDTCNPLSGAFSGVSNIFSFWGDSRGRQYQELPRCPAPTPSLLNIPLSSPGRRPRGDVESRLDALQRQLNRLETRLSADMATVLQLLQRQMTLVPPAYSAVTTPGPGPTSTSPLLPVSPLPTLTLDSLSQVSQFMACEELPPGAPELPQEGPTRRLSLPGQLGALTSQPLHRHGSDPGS

[7] = Intrinsic clearance in rat liver microsomes assessed per mg of protein; assay type: ADME, Microsome
[8] = Clearance in iv dosed rat; assay type: ADME, organism-based; settings: in vivo

| SMILES | IC50 [1] [nM] | logD [2] | microsomal CLint [3] [µL/min/mg] | IC50 (Protein smoothened [4]) [nM] | IC50 (Protein smoothened [5]) [nM] | IC50 [6] [nM] | microsomal CLint [7] [µL/min/mg] | clearance [8] [mL/min/kg] |
| --- | --- | --- | --- | --- | --- | --- | --- | --- |
| O=C(NCC1(N2CCOCC2)CCCC1)N1CCC(c2nc(-c3ccc4ccccc4n3)no2)CC1 | 46 | 2.62 | > 400 | 100 | 30 | 10000 | > 500 |  |
| O=C(NCC1(c2ccccc2)CCCC1)N1CCC(c2nc(-c3ccc4ccccc4n3)no2)CC1 | 410 |  |  | 4500 | 810 |  |  |  |
| O=C(NCC1(CO)CCCC1)N1CCC(c2nc(-c3ccc4ccccc4n3)no2)CC1 | 600 |  |  | 6900 | 910 |  |  |  |
| O=C(NCC1(C(=O)N2CCCCC2)CCCC1)N1CCC(c2nc(-c3ccc4ccccc4n3)no2)CC1 |  |  |  | 7000 | 230 |  |  |  |
| CC(=O)NC1(CNC(=O)N2CCC(c3nc(-c4ccc5ccccc5n4)no3)CC2)CCCC1 | 190 |  |  | 13000 | 320 |  |  |  |
| CC(C)(C)OC(=O)NC1(CNC(=O)N2CCC(c3nc(-c4ccc5ccccc5n4)no3)CC2)CCCC1 | 2000 |  |  | 14000 | 2000 |  |  |  |
| O=C(NCCN1CCOCC1)N1CCC(c2nc(-c3ccc4ccccc4n3)no2)CC1 | 2500 |  |  | 3400 | 4900 |  |  |  |
| CC(C)(CNC(=O)N1CCC(c2nc(-c3ccc4ccccc4n3)no2)CC1)N1CCOCC1 | 450 |  | 112 | 670 | 290 |  | > 300 |  |
| O=C(NCC1(N2CCOCC2)CCCCC1)N1CCC(c2nc(-c3ccc4ccccc4n3)no2)CC1 | 140 |  | > 500 | 72 | 23 | 4300 | > 500 |  |
| O=C(NCC1(N2CCOCC2)CCCCCC1)N1CCC(c2nc(-c3ccc4ccccc4n3)no2)CC1 | 330 |  |  | 480 | 240 |  |  |  |
| O=C(NCC1(N2CCCC2)CCCC1)N1CCC(c2nc(-c3ccc4ccccc4n3)no2)CC1 | 69 |  | 52 | 42 | 32 | 7100 | 100 |  |
| O=C(NCC1(N2CCCCC2)CCCC1)N1CCC(c2nc(-c3ccc4ccccc4n3)no2)CC1 | 100 |  | 49 | 51 | 46 |  | 160 | > 100 |
| CCN(CC)C1(CNC(=O)N2CCC(c3nc(-c4ccc5ccccc5n4)no3)CC2)CCCC1 | 120 |  | 98 | 46 | 55 | 9400 | > 200 |  |
| CN(C)C1(CNC(=O)N2CCC(c3nc(-c4ccc5ccccc5n4)no3)CC2)CCCC1 | 310 |  | 40 | 370 | 300 | 38000 | 27 |  |
| NC1(CNC(=O)N2CCC(c3nc(-c4ccc5ccccc5n4)no3)CC2)CCCC1 | 350 |  |  | 790 | 630 |  |  |  |
| CCNC1(CNC(=O)N2CCC(c3nc(-c4ccc5ccccc5n4)no3)CC2)CCCC1 | 88 |  | 7 | 91 | 46 | 24000 | 51 |  |
| CC(C)NC1(CNC(=O)N2CCC(c3nc(-c4ccc5ccccc5n4)no3)CC2)CCCC1 | 25 |  |  | 58 | 16 |  |  |  |
| O=C(NCC1(NC2CCCCC2)CCCC1)N1CCC(c2nc(-c3ccc4ccccc4n3)no2)CC1 | 430 |  |  | 520 | 140 |  |  |  |
| O=C(NCC1(N2CCC(F)CC2)CCCC1)N1CCC(c2nc(-c3ccc4ccccc4n3)no2)CC1 | 90 |  |  | 200 | 110 |  |  |  |

| SMILES | IC50 [1] [nM] | logD [2] | microsomal CLint [3] [µL/min/mg] | IC50 (Protein smoothened [4]) [nM] | IC50 (Protein smoothened [5]) [nM] | IC50 [6] [nM] | microsomal CLint [7] [µL/min/mg] | clearance [8] [mL/min/kg] |
| --- | --- | --- | --- | --- | --- | --- | --- | --- |
| O=C(NCC1(N2CCC(F)(F)CC2)CCCC1)N1CCC(c2nc(-c3ccc4ccccc4n3)no2)CC1 | 100 |  |  | 950 | 180 |  |  |  |
| COC1CCN(C2(CNC(=O)N3CCC(c4nc(-c5ccc6ccccc6n5)no4)CC3)CCCC2)CC1 | 260 |  |  | 530 | 210 |  |  |  |
| CN1CCN(C2(CNC(=O)N3CCC(c4nc(-c5ccc6ccccc6n5)no4)CC3)CCCC2)CC1 | 450 |  |  | 400 | 510 |  |  |  |
| O=C(NCC(c1ccccc1)N1CCCCC1)N1CCC(c2nc(-c3ccc4ccccc4n3)no2)CC1 (stereo not given) | 130 |  |  | 330 | 210 |  |  |  |
| O=C(NCC(c1ccccn1)N1CCOCC1)N1CCC(c2nc(-c3ccc4ccccc4n3)no2)CC1 (stereo not given) | 790 |  |  | 4200 | 2700 |  |  |  |
| O=C(NCC(c1cccnc1)N1CCOCC1)N1CCC(c2nc(-c3ccc4ccccc4n3)no2)CC1 (stereo not given) | 4200 |  |  | 9900 | 2600 |  |  |  |
| O=C(NCC(c1ccncc1)N1CCOCC1)N1CCC(c2nc(-c3ccc4ccccc4n3)no2)CC1 (stereo not given) | 8200 |  |  | 17000 | 8600 |  |  |  |
| CCN1CCCC1CNC(=O)N1CCC(c2nc(-c3ccc4ccccc4n3)no2)CC1 (stereo not given) |  |  |  | 490 | 290 |  |  |  |
| CC(C)N1CCCC1CNC(=O)N1CCC(c2nc(-c3ccc4ccccc4n3)no2)CC1 (stereo not given) | 850 |  | 10 | 650 | 340 |  | 19 | > 100 |
| CCN1CCCCC1CNC(=O)N1CCC(c2nc(-c3ccc4ccccc4n3)no2)CC1 (stereo not given) | 130 |  |  | 80 | 64 |  |  |  |
| CCN1CCOCC1CNC(=O)N1CCC(c2nc(-c3ccc4ccccc4n3)no2)CC1 (stereo not given) | 230 |  |  | 390 | 300 |  |  |  |
| O=C(NCC1NCCc2ccccc21)N1CCC(c2nc(-c3ccc4ccccc4n3)no2)CC1 (stereo not given) | 960 |  |  | 600 | 380 |  |  |  |
| CN1CCc2ccccc2C1CNC(=O)N1CCC(c2nc(-c3ccc4ccccc4n3)no2)CC1 (stereo not given) | 380 |  |  | 470 | 360 |  |  |  |
| Cn1c(-c2noc(C3CCN(C(=O)NCC4(N5CCOCC5)CCCC4)CC3)n2)nc2ccccc21 | 18 |  |  | 15 | 17 |  |  |  |
| Cn1c(-c2noc(C3CCN(C(=O)NCC4(N5CCCCC5)CCCC4)CC3)n2)nc2ccccc21 | 23 |  |  | 19 | 21 |  |  |  |
| O=C(NCC1(N2CCOCC2)CCCC1)N1CCN(c2nc(-c3ccc4ccccc4n3)no2)CC1 | 16 |  |  | 15 | 10 |  |  |  |
| O=C(NCC1(N2CCCCC2)CCCC1)N1CCN(c2nc(-c3ccc4ccccc4n3)no2)CC1 | 40 |  |  | 10 | 8 |  |  | > 100 |
| Cn1c(-c2noc(N3CCN(C(=O)NCC4(N5CCCCC5)CCCC4)CC3)n2)nc2ccccc21 | 4 |  |  | 6 | 5 |  |  |  |
| O=C(NC1CCC(F)(F)CC1)N1CCN(c2nc(-c3ccc4ccccc4n3)no2)CC1 | 5 |  |  | 13 | 13 |  |  |  |
